Reference: patent US12668591B2, “1,2,4-oxadiazole derivatives as histone deacetylase 6 inhibitors” (Oryzon Genomics, S.A., priority 2017, dated 2026)

Key:
HDAC2 = molecular target: T1, HDAC2 (Homo sapiens, UniProt Q92769); test: HDAC2 enzyme inhibition assay (fluorimetric); type: biochemical; conditions: 1 μM compound; 3 h pre-incubation; recombinant full length HDAC2; read-out: HDAC2 % inh @ 1 μM
T1 construct: (full length with C-terminal His-tag); His (C); purchased BPS Bioscience Inc. 50002
Procedure: (§1) HDAC6 and HDAC2 Enzyme Inhibition Assay
(§2) A fluorimetric assay was used for testing the activity of compounds of the invention against HDAC6 and HDAC2.
(§3) The compounds were dissolved in DMSO. Serial dilutions were prepared in DMSO and then diluted 1:10 in HDAC assay buffer (Tris-buffered solution, BPS Bioscience Inc. #50031). 5 μl of the compound dilution was added to a 50 μl reaction so that the final concentration of DMSO was 1%.
(§4) The compounds were pre-incubated in duplicate at RT for 3 hours in a mixture containing HDAC assay buffer, 5 μg BSA and recombinant HDAC enzyme (see table above). The enzymatic reactions were initiated by the addition of a fluorogenic, acetylated peptide substrate based on a histone protein (BPS Bioscience Inc. #50037) to a final concentration of 10 μM. The enzymatic reaction proceeded for 30 minutes at 37° C. Then, 50 μl of 2× HDAC Developer, which contains peptidase activity and Trichostatin A (BPS Bioscience Inc. #50030) was added and the plate was incubated at RT for an additional 15 minutes. Fluorescence intensity was measured at an excitation of 360 nm and an emission of 460 nm using a Tecan Infinite M1000 microplate reader.
(§5) Trichostatin A (TSA, Selleckchem #S1045) was used as reference inhibitor.
(§6) The fluorescent intensity data were analyzed using the computer software Graphpad Prism (GraphPad Software, San Diego, CA). 100% activity was defined as the fluorescent intensity (Ft) in the absence of the compound. 0% activity was defined as the fluorescent intensity (Fb) in the absence of the enzyme. The percent activity in the presence of each compound was calculated according to the following equation: % activity=(F−Fb)/(Ft−Fb), where F=the fluorescent intensity in the presence of the compound.

HDAC6 [1] = molecular target: T2, HDAC6 (Homo sapiens, UniProt Q9UBN7); test: HDAC6 enzyme inhibition assay (fluorimetric); type: biochemical; conditions: 1 μM compound; 3 h pre-incubation; recombinant full length HDAC6; read-out: HDAC6 % inh @ 1 μM
T2 sequence (Q9UBN7 1-1215): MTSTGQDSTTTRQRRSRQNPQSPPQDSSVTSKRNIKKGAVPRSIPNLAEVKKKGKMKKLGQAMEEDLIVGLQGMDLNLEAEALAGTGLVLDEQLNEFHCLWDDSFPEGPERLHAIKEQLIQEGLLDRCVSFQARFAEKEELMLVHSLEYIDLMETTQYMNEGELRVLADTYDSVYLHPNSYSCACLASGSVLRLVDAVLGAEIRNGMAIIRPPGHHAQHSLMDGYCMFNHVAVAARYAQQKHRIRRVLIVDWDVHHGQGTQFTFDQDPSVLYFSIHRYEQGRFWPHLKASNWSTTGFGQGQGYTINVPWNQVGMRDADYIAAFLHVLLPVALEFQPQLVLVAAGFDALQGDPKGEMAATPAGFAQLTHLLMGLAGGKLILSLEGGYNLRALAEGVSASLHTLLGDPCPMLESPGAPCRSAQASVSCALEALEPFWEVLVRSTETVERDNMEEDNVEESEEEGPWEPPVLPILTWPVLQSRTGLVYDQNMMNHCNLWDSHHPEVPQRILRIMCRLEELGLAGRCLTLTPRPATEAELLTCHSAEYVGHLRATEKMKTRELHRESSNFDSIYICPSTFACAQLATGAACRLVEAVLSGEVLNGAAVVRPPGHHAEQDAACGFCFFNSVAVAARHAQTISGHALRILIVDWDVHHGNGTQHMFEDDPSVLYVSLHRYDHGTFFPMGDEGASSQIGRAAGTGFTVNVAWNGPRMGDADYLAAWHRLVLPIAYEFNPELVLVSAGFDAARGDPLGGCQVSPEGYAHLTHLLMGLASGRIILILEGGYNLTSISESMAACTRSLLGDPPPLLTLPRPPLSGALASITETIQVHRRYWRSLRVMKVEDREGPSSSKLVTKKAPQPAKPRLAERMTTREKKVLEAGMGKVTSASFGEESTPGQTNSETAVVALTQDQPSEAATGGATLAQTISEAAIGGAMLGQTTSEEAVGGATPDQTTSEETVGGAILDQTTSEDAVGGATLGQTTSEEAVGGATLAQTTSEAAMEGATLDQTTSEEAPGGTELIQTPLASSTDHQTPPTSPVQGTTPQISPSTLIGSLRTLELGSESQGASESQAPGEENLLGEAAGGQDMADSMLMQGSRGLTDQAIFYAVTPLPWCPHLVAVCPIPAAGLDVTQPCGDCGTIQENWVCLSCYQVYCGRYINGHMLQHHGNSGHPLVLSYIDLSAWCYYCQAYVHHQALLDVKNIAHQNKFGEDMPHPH
Procedure: as §1, §2, §3, §4, §5, §6

HDAC6 [2] = molecular target: T2, HDAC6; test: In vitro cell-based assay: acetylation levels of Alpha-Tubulin by Western Blot in MOLP8 cells; set-up: endogenous in cells; host or cells: MOLP8; conditions: 18 h, acetyl-alpha-tubulin relative band intensity, ACY-1215 1 μM = 100%
Procedure: In Vitro Cell-Based Assay
In order to determine the cellular activity of HDAC6 upon treatment with HDAC6 inhibitors, acetylation levels of Alpha-Tubulin (a HDAC6-specific substrate) were measured by Western Blot. For this, MOLP8 cells were seeded in 6-well plates at a cell density of 500.000 cells/well and treated with the selected compounds at 5 and 1 μM for 18 h at 37° C. and 5% CO2 in a humidified tissue culture incubator. Consecutively, cell pellets were collected and whole protein extracts prepared using RIPA buffer (SIGMA) supplemented with 1× protease inhibitors (cOmplete mini, Roche). Protein concentration was determined with Bradford's reagent (Bio-Rad) as per manufacturer's instructions, and 7 μg of total protein were loaded into pre-cast 10% NuPAGE Novex gels (Life Technologies). Gels were run in […] (Life Technologies) and proteins were transferred using the iBlot 2 Dry Blotting System (Life Technologies). Blots were subsequently rinsed in distilled water and stained with Ponceau S solution (SIGMA). Blots were then washed in distilled water to remove Ponceau excess and scanned with the Epson Perfection V600 Photo professional Scanner. After this, blots were de-stained and blocked in 5% milk/PBS-Tween 0.1% for 1 h at room temperature followed by incubation with anti-Acetyl-alpha Tubulin (SIGMA cat. #T7451, 1:10.000 dilution) and anti-Beta-actin (SIGMA, cat. #A5316, 1:2.000 dilution) primary antibodies in 5% milk/PBS-T 0.1%, overnight at 4° C. on a shaking platform. After incubation, blots were washed 3 times for 5 minutes each in PBS-Tween 0.5% and incubated with anti-mouse HRP-conjugated secondary antibody (Jackson Immuno Research, cat. #115-035-068) at 1:8.000 in 5% milk/PBS-Tween 0.1%, 1 h at room temperature on a shaking platform. After 3 washes of 5 minutes each with PBS-Tween 0.5% and 1 wash in PBS 1×, blots were developed with ECL Plus (GE Healthcare) and the chemiluminescent reaction imaged with the G:Box Chemi XRQ (Syngene) imaging system. WB and Ponceau images were analysed with ImageJ software, WB band intensities normalized by either total protein or Beta-actin content and made relative to ACY-1215 1 μM (equivalent to 100%). ACY-1215 is a HDAC6 inhibitor, and is also known as ricolinostat, with chemical name 2-(diphenylamino)-N-[7-(hydroxyamino)-7-oxoheptyl]-5-pyrimidinecarboxamide. Percentage of band intensities was classified as follows: […]

T1 sequence (Q92769 whole entry): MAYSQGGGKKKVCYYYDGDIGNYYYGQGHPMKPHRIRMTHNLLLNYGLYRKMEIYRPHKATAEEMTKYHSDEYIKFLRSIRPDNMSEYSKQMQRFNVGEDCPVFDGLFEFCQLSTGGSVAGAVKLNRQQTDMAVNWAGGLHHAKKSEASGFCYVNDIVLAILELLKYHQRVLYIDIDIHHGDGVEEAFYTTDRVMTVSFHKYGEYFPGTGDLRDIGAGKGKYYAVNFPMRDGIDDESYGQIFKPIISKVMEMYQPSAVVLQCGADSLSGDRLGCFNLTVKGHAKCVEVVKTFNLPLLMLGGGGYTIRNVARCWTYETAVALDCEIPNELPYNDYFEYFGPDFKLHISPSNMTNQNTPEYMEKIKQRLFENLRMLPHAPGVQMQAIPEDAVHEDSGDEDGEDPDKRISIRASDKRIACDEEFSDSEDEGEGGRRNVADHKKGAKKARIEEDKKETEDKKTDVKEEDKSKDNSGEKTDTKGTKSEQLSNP

Row | SMILES | inhibition at 1 µM (HDAC2) [%] | inhibition at 1 µM (HDAC6 [1]) [%] | Cellular activity @1 uM (HDAC6 [2]) | Cellular activity @5 uM (HDAC6 [2])
1 | COCCn1ccc2cc(-c3cc(-c4noc(C(F)(F)F)n4)ccn3)ncc21 [Example 1x, 3-(2-(1-(2-Methoxyethyl)-1H-pyrrolo[2,3-c]pyridin-5-yl)pyridin-4-yl)-5-(trifluoromethyl)-1,2,4-oxadiazole] | 16 | 95 | ++ (150-300) | +++ (>300)
2 | CCN(CC)CCCNc1ccc(-c2cc(-c3noc(C(F)(F)F)n3)ccn2)nc1 [Example 1k, N^1,N^1-Diethyl-N^3-(4′-(5-(trifluoromethyl)-1,2,4-oxadiazol-3-yl)-[2,2′-bipyridin]-5-yl)propane-1,3-diamine] | 27 | 95 | + (50-150) | + (50-150)
3 | CCCCn1ccc2cc(-c3cc(-c4noc(C(F)(F)F)n4)ccn3)ncc21 [Example 1, 3-(2-(1-Butyl-1H-pyrrolo[2,3-c]pyridin-5-yl)pyridin-4-yl)-5-(trifluoromethyl)-1,2,4-oxadiazole] |  | 79 | − (<50) | + (50-150)
4 | O=C(Nc1ccnc(-c2cc(-c3noc(C(F)(F)F)n3)ccn2)c1)C1CCCNC1 (stereo not drawn) [Example 5, N-(4′-(5-(trifluoromethyl)-1,2,4-oxadiazol-3-yl)-[2,2′-bipyridin]-4-yl)piperidine-3-carboxamide] | 29 | 95 | ++ (150-300) | ++ (150-300)
5 | CCCCn1c(C(=O)N(C)C)cc2cc(-c3cc(-c4noc(C(F)(F)F)n4)ccn3)ncc21 [Example 1b, 1-Butyl-N,N-dimethyl-5-(4-(5-(trifluoromethyl)-1,2,4-oxadiazol-3-yl)pyridin-2-yl)-1H-pyrrolo[2,3-c]pyridine-2-carboxamide] |  | 84 | + (50-150) | ++ (150-300)
6 | FC(F)(F)c1nc(-c2ccnc(-c3cc4c(ccn4CC4CCOCC4)cn3)c2)no1 [Example 1r, 3-(2-(1-((Tetrahydro-2H-pyran-4-yl)methyl)-1H-pyrrolo[3,2-c]pyridin-6-yl)pyridin-4-yl)-5-(trifluoromethyl)-1,2,4-oxadiazole] |  | 92 | ++ (150-300) | ++ (150-300)
7 | CCN(CC)CCCOc1cnc(-c2cc(-c3noc(C(F)(F)F)n3)ccn2)nc1 [Example 1m, N,N-Diethyl-3-(2-(4-(5-(trifluoromethyl)-1,2,4-oxadiazol-3-yl)pyridin-2-yl)pyrimidin-5-yloxy)propan-1-amine] |  | 81 | − (<50) | + (50-150)
8 | CCCn1cc(CN2CCOCC2)c2cc(-c3cc(-c4noc(C(F)(F)F)n4)ccn3)ncc21 [Example 1h, 4-((1-Propyl-5-(4-(5-(trifluoromethyl)-1,2,4-oxadiazol-3-yl)pyridin-2-yl)-1H-pyrrolo[2,3-c]pyridin-3-yl)methyl)morpholine] |  | 96 | + (50-150) | ++ (150-300)
9 | CCCCn1c(C(=O)NCC)cc2cc(-c3cc(-c4noc(C(F)(F)F)n4)ccn3)ncc21 [Example 1d, 1-Butyl-N-ethyl-5-(4-(5-(trifluoromethyl)-1,2,4-oxadiazol-3-yl)pyridin-2-yl)-1H-pyrrolo[2,3-c]pyridine-2-carboxamide] |  | 78 | + (50-150) | ++ (150-300)
10 | FC(F)(F)c1nc(-c2ccnc(-c3cc(OCCN4CCOCC4)ccn3)c2)no1 [Example 1t, 4-(2-((4′-(5-(Trifluoromethyl)-1,2,4-oxadiazol-3-yl)-[2,2′-bipyridin]-4-yl)oxy)ethyl)morpholine] |  | 88 | − (<50) | + (50-150)
11 | FC(F)(F)c1nc(-c2ccnc(-c3cc4c(CN5CCCCC5)n[nH]c4cn3)c2)no1 [Example 1aa, 3-(2-(3-(Piperidin-1-ylmethyl)-1H-pyrazolo[3,4-c]pyridin-5-yl)pyridin-4-yl)-5-(trifluoromethyl)-1,2,4-oxadiazole] |  | 92 | + (50-150) | + (50-150)
